# Source: PMC10136548, “Evaluation of 3D Human Intestinal Organoids as a Platform for EV-A71 Antiviral Drug Discovery” (Cells, 2023)
# Experiments:
# enteroids = settings: cited from earlier work
# [1] = Cytotoxicity (Cell Titer-Glo 3D viability) in non-infected HIOs; type: cell-based; settings: human; for CC50 at 72 h: non-infected HIOs, compounds 0.5–100 μM
# Method: HiPSCs were cultured in colonies on Matrigel (Corning Inc., Corning, NY, USA) in mTeSR1 medium (STEMCELL Technologies, Vancouver, BC, Canada). HIOs were differentiated from the hiPSC line using STEMdiff™ Intestinal Organoid Kit (STEMCELL Technologies) following the manufacturer’s instructions. Briefly, hiPSCs were plated and differentiated towards definitive endoderm (day 3), and then to mid-/hindgut cells (day 5–9 post seeding). The spheroids generated during the mid-/hindgut stage were embedded in Matrigel and grown in intestinal growth media for further differentiation and expansion into intestinal organoids (30–45 days post hiPSCs seeding). After maturation and for long-term culture, HIOs were passaged twice a week, and medium was changed if needed every two days.
# (§1) Viability of HIOs and RD cells were determined by Cell Titer-Glo® 3D Cell Viability Assay (Promega, Fitchburg, WI, USA) and Cell Titer-Glo® Luminescent Cell Viability Assay (Promega), respectively. According to the manufacturer’s instructions, in a white 96-well plate (Greiner Bio-One, Stonehouse, UK), a 1:1 ratio of reagent and spent culture medium was added to the wells and mixed, and the luminescence signal was measured by CLARIO star plus (B M G Labtech Ltd., Aylesbury, UK).
# (§2) For determination of compounds’ half maximal cytotoxic concentration (CC50), the non-infected HIOs/cells were treated with compounds (0.5–100 μM) for 72 h. The viability % was calculated as follows: (luminescence reading compound treated)/(luminescence reading DMSO control) × 100. The CC50 was calculated using non-linear regression (curve fit) with GraphPad Prism 9 (GraphPad, La Jolla, CA, USA). For determination of compounds half maximal effective concentration (EC50), the infected HIOs/cells were treated with DMSO (i.e., 0 µM) or compounds (0.15–40 μM) for 72 h. The CPE inhibition % was calculated as follows: (luminescence reading compound treated)/(luminescence reading DMSO control) × 100. The EC50 was calculated using non-linear regression (curve fit) with GraphPad Prism 9 (GraphPad).
# [2] = Cytotoxicity (Cell Titer-Glo viability) in non-infected RD cells; type: cell-based; settings: human, non-infected RD cells (ATCC CCL-136); for CC50 at 72 h: non-infected RD cells, compounds 0.5–100 μM
# Method: RD cells (ATCC, CCL-136, Manassas, VA, USA) were maintained in Dulbecco’s modified Eagle’s medium (DMEM) (Gibco, Thermo Fisher Scientific, Waltham, MA, USA) supplemented with 10% fetal bovine serum (FBS) (Gibco), 1% L-glutamine (Gibco), 1% sodium bicarbonate (Gibco), and 1% penicillin-streptomycin (Gibco). The cell culture was incubated at 37 °C under 5% CO2.
# as §1, §2
# EV-A71 BrCr strain [3] = assay: CPE inhibition in EV-A71-infected HIOs; type: cell-based, Enterovirus A71; settings: for EV-A71-induced CPE upon visual inspection: 1.25 μM, 72 hpi; for Selectivity Index (SI) = CC50/EC50: EC50 from CPE inhibition; for EC50: Enterovirus A, EVA71, EV-A71 MOI 0.1, 72 h, read-out: EC50 based on CPE inhibition
# Method: (§3) EV-A71 BrCr strain, a gift from Prof. F. van Kuppeveld (University of Utrecht, Utrecht, The Netherlands), was propagated in RD cells, cultured in 2% FBS-DMEM at 37 °C under 5% CO2. […] EV-A71 stock titer was determined by the 50% tissue culture infective dose (TCID50) assay (Reed and Muench, 1938).
# (§4) For infection, HIOs were mechanically fragmented by vigorously pipetting using a P1000 to expose the apical surface to the virus inoculum as previously described. After virus inoculation (MOI = 0.01, 0.1, or 1) with EV-A71 or mock infection, the mixture was then incubated for 2 h at 37 °C for virus adsorption. After washing, the infected HIO fragments were mixed with 20% Matrigel-organoid growth medium and seeded at 10,000 cells/well in a 96-well plate pre-coated with 20% Matrigel-organoid growth medium at 50 µL/well.
# as §1
# as §2, with “For determination of compounds half maximal effective concentration (EC50), the infected HIOs/cells were treated with DMSO (i.e., 0 µM) or compounds (0.15–40 μM) for 72 h.” left out
# (§5) Figure 4 Comparison of antiviral activity determined by CPE inhibition and viral RNA yield between HIOs and RD cells. (A) Viability of HIOs and RD cells was measured, using Cell Titer-Glo 3D or Cell Titer-Glo, after 72 h of EV-A71 infection at MOI 0.1 and incubation with compounds at indicated concentrations. CPE inhibition is calculated based on percentage of mock-infected control. The half maximal effective concentration (EC50) was calculated using Prism nonlinear regression (GraphPad Prism 9). (B) For viral RNA yield, HIOs and RD cells were infected with EV-A71 at an MOI of 0.1 and treated with compounds at indicated concentrations for 72 h before total culture of HIOs or supernatant of cells were collected by combining triplicates and determined by RT-qPCR. Viral RNA yield is calculated based on percentage of mock-infected control. The EC50 was calculated using Prism nonlinear regression (GraphPad Prism 9). (C) Brightfield images of mock control, infection treated with 1.25 µM rupintrivir, and infected control HIOs and RD cells at 72 hpi. All images were acquired using the same objective. Scale bar, […]. (D) Images represent mock-, EV-A71-infected HIOs (0.1 MOI), and EV-A71-infected HIOs (0.1 MOI) treated with rupintrivir (10 µM) at 48 hpi: DAPI (blue) for nucleus, phalloidin (red) for F-actin, and dsRNA (green). Scale bar, […]. Data are the mean ± SEM of at least six independent experiments; each carried out in triplicate.
# EV-A71 BrCr strain [4] = assay: CPE inhibition in EV-A71-infected RD cells; type: cell-based, Enterovirus A71; settings: for EV-A71-induced CPE upon visual inspection: 1.25 μM, 72 hpi; for Selectivity Index (SI) = CC50/EC50: EC50 from CPE inhibition; for EC50: Enterovirus A, EVA71, EV-A71 MOI 0.1, 72 h, read-out: EC50 based on CPE inhibition
# Method: as §3
# (§6) For RD cell line infection, 20,000 cells/well were cultured in 96-well plate at 37 °C for 24 h. To prepare virus inoculum (MOI = 0.01, 0.1, or 1), EV-A71 was diluted in 2% FBS-DMEM. Medium on cell monolayer was removed, and the inoculum was added for 1 h at 37 °C for virus adsorption. After washing, the monolayer was cultured in DMEM supplemented with 2% FBS.
# as §1
# as §2, with “For determination of compounds half maximal effective concentration (EC50), the infected HIOs/cells were treated with DMSO (i.e., 0 µM) or compounds (0.15–40 μM) for 72 h.” left out
# as §5
# EV-A71 BrCr strain [5] = assay: Viral RNA yield (RT-qPCR) in EV-A71-infected HIOs; type: cell-based, Enterovirus A71; settings: for Selectivity Index (SI) = CC50/EC50: EC50 from RNA yield; for EC50: Enterovirus A, EVA71, EV-A71 MOI 0.1, 72 h, RT-qPCR, read-out: EC50 based on RNA yield
# Method: as §3, §4
# (§7) RNA was extracted from harvested samples using RNeasy Plus Mini Kit (Qiagen, Hilden, Germany). cDNA was created from the isolated RNA using High-Capacity cDNA Reverse Transcription Kit (ThermoFisher Scientific, Waltham, MA, USA) according to the manufacturer’s instructions.
# (§8) For EV-A71 replication quantification, each 10 µL reaction mixture contained: 5 µL of Master Mix, 1.5 µL of RNase-free water, 0.5 µL each of gene-specific forward and reverse primer, and 3 µL of cDNA as template. The reaction plate was loaded in a LightCycler® 480 Real-Time PCR System (Roche) and ran at 95 °C for 3 min for pre-incubation, followed by 40 amplification cycles of 95 °C for 15 s and 60 °C for 60 s. Signal detection and measurements were taken in each amplification cycle. The EV-A71 viral loads in the samples were detected with the PanEV primer using a previously described customized primers probe mix (Integrated DNA Technologies, Coralville, IA, USA). The viral gene copy number was determined by absolute quantification and making a standard curve using custom gBlocks™ Gene Fragments (Integrated DNA Technologies) (5′-[…]-3′).
# as §5
# EV-A71 BrCr strain [6] = assay: Viral RNA yield (RT-qPCR) in EV-A71-infected RD cells; type: cell-based, Enterovirus A71; settings: for Selectivity Index (SI) = CC50/EC50: EC50 from RNA yield; for EC50: Enterovirus A, EVA71, EV-A71 MOI 0.1, 72 h, RT-qPCR, read-out: EC50 based on RNA yield
# Method: as §3, §6, §7, §8, §5
# human rhinovirus (HRV) = system: human rhinovirus (HRV); design: method as in PMID 6113314, PMID 2984980; settings: cited from earlier work
# HRV = system: HRV; design: method as in PMID 14638501; settings: human; cited from earlier work
# HCV = system: HCV; design: method as in PMID 29534607, PMID 20006612, PMID 19426125; settings: human, HCV infection, after 8 to 12 weeks of treatment; cited from earlier work
Structure (SMILES),CC50 at 72 h [1] [µM],CC50 at 72 h [2] [µM],EV-A71-induced CPE upon visual inspection (EV-A71 BrCr strain [3]),Selectivity Index (SI) = CC50/EC50 (EV-A71 BrCr strain [3]),EC50 (EV-A71 BrCr strain [3]) [nM],EV-A71-induced CPE upon visual inspection (EV-A71 BrCr strain [4]),Selectivity Index (SI) = CC50/EC50 (EV-A71 BrCr strain [4]),EC50 (EV-A71 BrCr strain [4]) [nM],Selectivity Index (SI) = CC50/EC50 (EV-A71 BrCr strain [5]),EC50 (EV-A71 BrCr strain [5]) [nM],Selectivity Index (SI) = CC50/EC50 (EV-A71 BrCr strain [6]),EC50 (EV-A71 BrCr strain [6]) [nM],also measured
CCC(C)n1ncn(-c2ccc(N3CCN(c4ccc(OCC5COC(Cn6cncn6)(c6ccc(Cl)cc6Cl)O5)cc4)CC3)cc2)c1=O (stereo not shown) [itraconazole],,,,,,,,,,,,,cytotoxicity in enteroids compared to cell lines (enteroids): enhanced cytotoxicity
"CC(C)S(=O)(=O)n1c(N)nc2ccc(/C(=N/O)c3ccccc3)cc21 [Enviroxime, enviroxime]",24 ± 7,28 ± 2,reduced,60,400 ± 200,reduced,467,60 ± 1,17,1400 ± 300,140,200 ± 40,"viability at 72 h, 100 µM ([1]; HIOs, 100 µM): 0%; viability at 72 h, 100 µM ([2]; RD cells, highest tested concentration 100 μM): 20%; side effects in clinical studies (human rhinovirus (HRV); HRV infection): gastrointestinal side effects; clinical effects against infection (human rhinovirus (HRV)): no significant clinical effects"
"CCOC(=O)/C=C/[C@H](C[C@@H]1CCNC1=O)NC(=O)[C@@H](CC(=O)[C@@H](NC(=O)c1cc(C)on1)C(C)C)Cc1ccc(F)cc1 [Rupintrivir, rupintrivir]",> 100,> 100,reduced,>667,< 150,reduced,>2857,< 35,>59,1700 ± 400,>2857,< 35,"protection from EV-A71-induced CPE (EV-A71 BrCr strain [3]; lowest concentration tested 0.15 μM): full protection; protection from EV-A71-induced CPE (EV-A71 BrCr strain [4]; lowest concentration tested 0.035 μM): full protection; viral RNA levels (EV-A71 BrCr strain [6]; at all tested concentrations, MOI 0.1, 72 h): 10 ± 3%; adverse side effects or treatment effects in phase II clinical studies (HRV): no adverse side effects or treatment effects"
"C[C@@]1(O)[C@H](O)[C@@H](CO)O[C@H]1n1ccc(N)nc1=O [2′CMC, 2′-C-methylcytidine]",48 ± 1,> 100,,48,1000 ± 300,,>76,1300 ± 40,32,1500 ± 300,>50,2000 ± 400,"reduction of virus-induced CPE (maximum) (EV-A71 BrCr strain [3]; ATP-based viability assay, plateau from 2.5 μM to 20 μM): up to 66 ± 17%; protection from virus-induced CPE (EV-A71 BrCr strain [4]): complete protection"
CC(C)[C@H](N)C(=O)O[C@@H]1[C@@H](CO)O[C@@H](n2ccc(N)nc2=O)[C@]1(C)O [Valopicitabine],,,,,,,,,,,,,side effects during clinical study (HCV): gastrointestinal side effects
